We go through 3 compounds from patent US10682371B2, “Small molecule conjugates specifically activated in tumor microenvironment for targeting and use thereof” (priority 2014, dated 2020).

One series relates to BALB/C mice. In words: Maximum tolerated dose (MTD) / acute toxicity by single intravenous injection. The settings on record: for MTD (maximum tolerated dose): BALB/C mice, intravenous injection, one time.
A short description of series [1]: Multiple tumor models in nude mice: HT1080. Particulars: Human colon caner HT1080. Type of series: in vivo. As to the method: (§1) 1) Corresponding tumor cells were purchased from American type culture collection (ATCC) and identified according the specification provided by ATCC. Cells were cultivated in DMEM culture solution containing 10% fetal bovine serum at 37° C. and 5% CO2. The cells were passaged for every three days and cells within the 15th passage were used.
(§2) 2) Production of tumor. 5×10^6 corresponding cells were subcutaneously injected to the back of the nude mice. Mice were randomly grouped after the tumor reached at least 100 mm^3. Then treatment began and the day on which the treatment began was day 1.
(§3) 3) Course of treatment. […] The control group was administered by physiological saline. Animals were administered once weekly for three weeks.
(§4) 3) Course of treatment. According to the clinical application of A1, A1 was administered in a dose of ⅙ MTD, i.v., 17.6 μmol/kg. The control group was administered by physiological saline. Animals were administered once weekly for three weeks.
(§5) 3) Course of treatment. According to the clinical application of B1, B1 was administered in a dose of ⅙ MTD, i.v., 17.6 μmol/kg. The control group was administered by physiological saline. Animals were administered once weekly for three weeks.
as §3, §3

Series [2] concerns Human non-small cell lung cancer A549. In words: Multiple tumor models in nude mice: A549. Type of series: in vivo. As to the method:
as §1, §2, §3, §4, §5, §3, §3

Series [3] concerns Human pancreatic cancer Panc-1. In words: Multiple tumor models in nude mice: Panc-1. Type of series: in vivo. On the procedure: as §1, §2, §3, §4, §5, §3, §3
A short description of series [4]: Solubility / formulation test in solvent 1 and solvent 2. The class given is physicochemical. As to the method:
In Table 11, AAN, AANL and AANK indicate the linkage formed by small peptides in the compounds, A is Ala, N is Asn, L is Leu and K is Lys. […] The dissolution concentration is 10 mg/ml.
B1, B2, B3 and B4 and various control compounds were dried under vacuum, sterilized via gas sterilization, and separately packing in a sterile room. Before animal test, B1, B2, B3 and B4 were dissolved by solvent 1 (injectable water) or solvent 2 (30% alcohol, 70% injectable water) and diluted by injectable water to the desired concentration in sterile room. […] Change in solubility may greatly affect the formulation scheme of a drug.
D1, D2, D3, D4 and various control compounds were dried under vacuum, sterilized via gas sterilization, and separately packing in a sterile room. […] Change in solubility may greatly affect the formulation scheme of a drug.

Another series has as its system Human colon cancer HT-29. In words: Multiple tumor models in nude mice: HT-29. Type of series: in vivo. As to the method:
as §1, §2, §3, §4, §5, §3, §3

Series [5] concerns Human fibrosarcoma HT-1080 tumor tissue homogenate. The class given is biochemical. The settings on record: Human fibrosarcoma HT-1080, 1 mg/ml, 100 μg acidized homogenate. An outline of the steps:
(§6)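 Protease-driven activation measured in acidized (pH 6.0) tissue homogenates, 100 μg. Incubation at 37°C with compound at 1 mg/ml.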

In the next series the test system is tumor tissue homogenates. The class given is biochemical. An outline of the steps:
as §6

In a further series the test system is 4T1 cells. The series is described as follows: BALB/C mice model for tumor metastasis (4T1, lung metastases). The class given is in vivo. Particulars: for Inhibitory effect on tumor metastasis, in words: compared with parent drug group and control group. In a few lines: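 Read-out: lung metastasis count under anatomical microscope after Bouin's staining, day 27. Treatment (IV every three days ×4, saline for controls) started after surgical removal of the ~1.5 cm subcutaneous tumor grown from 10^6 4T1 cells (passage ≤15) in BALB/C mice.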

In series [6] the test system is Human prostate cancer PC-3 cells / Panc-1 cells. The series is described as follows: Tumor treatment in nude mice (PC-3 cells purchased, Panc-1 cells injected; Examples 22, 32, 42). The class given is in vivo. An outline of the steps:
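Nude mice bearing subcutaneous Panc-1 xenografts (5×10^6 cells on the back) were randomized once tumors reached at least 100 mm^3. Drugs were given intravenously once weekly for four weeks, with saline controls. PC-3 cells were grown in DMEM/10% FBS and used within passage 15.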

The subject of the next series is Human heart. Type of series: biochemical. Particulars: Table 34; Human heart; 1 mg/ml, acidized homogenate; Docetaxel release by HPLC.
Setting [7] is: single intravenous injection, 125 mg/kg, 10 BALB/C mice per group.
Setting [8] is: single intravenous injection, 150 mg/kg, 10 BALB/C mice per group.
[9] abbreviates: single intravenous injection, 175 mg/kg, 10 BALB/C mice per group.
The mark [10] stands for this setting: single intravenous injection, 200 mg/kg, 10 BALB/C mice per group.
Where [11] appears, read: Table 51, 25 mg/kg once weekly for three weeks.
The mark [12] stands for this setting: Table 50, BALB/C mice, 4T1, lung metastases day 27, IV every three days for 4 times, D1-D4 25 mg/kg, Docetaxel 4.2 mg/kg.
The mark [13] stands for this setting: Table 41, i.v. 17.6 μmol/kg once weekly for three weeks.
The mark [14] stands for this setting: Table 38, nude mice, IV once weekly for four weeks, B1-B4 25 mg/kg, Docetaxel […], Day 10.
Where [15] appears, read: Table 38, nude mice, IV once weekly for four weeks, B1-B4 25 mg/kg, Docetaxel […], Day 24.
Setting [16] is: Table 40, BALB/C mice, 4T1, lung metastases day 27, IV every three days for 4 times, B1-B4 17.6 μmol/kg, Docetaxel 3 μmol/kg.
Where [17] appears, read: 15 mg/kg once weekly for three weeks, Day 26.

Structures are written as SMILES. Read-outs that look alike come from different tables or passages of the source.

Turning to `COCCOCC(=O)N[C@H](C)C(=O)N[C@H](C)C(=O)N[C@H](CC(N)=O)C(=O)Nc1ccc(COC(=O)OC(C(=O)OC2C[C@@]3(O)[C@@H](OC(=O)c4ccccc4)[C@H]4[C@](C)(C(=O)[C@H](O)C(=C2C)C3(C)C)[C@@H](O)CC2OC[C@]24OC(C)=O)[C@@H](NC(=O)OC(C)(C)C)c2ccccc2)cc1` (stereo partly drawn) [Compound D1, 2-(2-methoxyethoxy) acetyl-L-Ala-L-Ala-L-Asn-4-amino benzyl-Docetaxel], the “Behaviors and death observed” value in the series on BALB/C mice (BALB/C mice receiving 150 mg/kg injection) is “no pilo-erection, hair tousle and lackluster, lethargy, stoop, irritable reaction and death”. The “MTD (maximum tolerated dose)” value in the series on BALB/C mice was “about 150 mg/kg”. For the same compound, the “Mortality rate (%)” value is recorded as 0% in the series with BALB/C mice (setting [7]), 0% with BALB/C mice (setting [8]), 0% in the series on BALB/C mice (setting [9]) and 10% with BALB/C mice (setting [10]). For the same compound, the “Number of dead animal” value turned out to be 0 with BALB/C mice (setting [7]), 0 in the series on BALB/C mice (setting [8]), 0 in the series with BALB/C mice (setting [9]) and 1 with BALB/C mice (setting [10]). In addition, the “inhibitory rate on tumor (Day 26)” value in series [1] (setting [11]) is 94.6%; in series [2] (setting [11]), 90.4%; in series [3] (setting [11]), 89.4%; in the series on Human colon cancer HT-29 (setting [11]), 68.6%. The “solubility in Solvent 1” value in series [4] (Table 44, second column (head repeats Solvent 1), text: solvent 2 (45% alcohol, 55% injectable water)) is “soluble”; in series [4] (solvent 1 (injectable water), Table 44, first column, Docetaxel D series) it was “insoluble”. For the same compound, in series [5] (Table 45, Docetaxel release by HPLC), the “Activation ratio (%) in homogenates from different tumor tissues” value was 77.23%. Further, the “Activation efficiency by tumor tissue, in words” value in the series on tumor tissue homogenates is listed as “highest activation efficiency”. In the series with 4T1 cells (setting [12]), the “Inhibitory rate on metastasis” value was found to be 95.2. Also, in the series with 4T1 cells (setting [12]), the “Number of metastasized tumor” value came to 5 ± 3. For the same compound, the “Inhibitory effect on tumor metastasis, in words” value (from here on “Inhibitory effect”) with 4T1 cells is “greatly improved”.
Take `COCCOCC(=O)NCCCC[C@H](NC(=O)COCCOC)C(=O)N[C@H](C)C(=O)N[C@H](C)C(=O)N[C@H](CC(N)=O)C(=O)Nc1ccc(COC(=O)OC(C(=O)OC2C[C@@]3(O)[C@@H](OC(=O)c4ccccc4)[C@H]4[C@](C)(C(=O)[C@H](O)C(=C2C)C3(C)C)[C@@H](O)CC2OC[C@]24OC(C)=O)[C@@H](NC(=O)OC(C)(C)C)c2ccccc2)cc1` (stereo partly shown) [Compound B1]: in the series on BALB/C mice (BALB/C mice receiving 175 mg/kg injection), the “Behaviors and death observed” value is “no pilo-erection, hair tousle and lackluster, lethargy, stoop, irritable reaction and death”. Besides, the “MTD (maximum tolerated dose)” value in the series on BALB/C mice is “about 150 mg/kg”. The “Mortality rate (%)” value with BALB/C mice (setting [7]) is listed as 0%; in the series with BALB/C mice (setting [8]), 0%; in the series on BALB/C mice (setting [9]), 0%; in the series on BALB/C mice (setting [10]), 20%. The “Number of dead animal” value with BALB/C mice (setting [7]) is listed as 0; with BALB/C mice (setting [8]) it was 0; in the series on BALB/C mice (setting [9]), 0; in the series on BALB/C mice (setting [10]), 2. The “inhibitory rate on tumor (Day 26)” value in series [1] (setting [13]) was found to be 84.46%; in [2] (setting [13]), 74.56%; in series [3] (setting [13]) it was 73.56%; in the series on Human colon cancer HT-29 (setting [13]), 74.56%. For the same compound, in series [4] (solvent 1 (injectable water), Table 33, water-soluble Docetaxel series), the “solubility in Solvent 1” value is reported as “insoluble”. The “solubility in Solvent 2” value in series [4] (solvent 2 (30% alcohol, 70% injectable water), Table 33, water-soluble Docetaxel series) is “soluble”. Also, the “activation efficiency (%)” value in series [5] (Table 34, Docetaxel release by HPLC) is recorded as 79.1%; with Human heart it was 12.2%. Besides, the “Size of tumor (mm^3) Day 10” value in series [6] (setting [14]) worked out at 92.4 ± 59.66 mm^3. In addition, the “inhibitory rate on tumor Day 10” value in series [6] (setting [14]) amounted to 67.8. Besides, the “Size of tumor (mm^3) Day 24” value in series [6] (setting [15]) stood at 128.45 ± 105.56 mm^3. Besides, in series [6] (setting [15]), the “inhibitory rate on tumor Day 24” value is recorded as 66.3. Moreover, in [6] (compared with parent drug group (same molar concentration) and control group), the “Inhibition on tumor growth, in words” value is “greatly improved”. For the same compound, the “Inhibitory rate on metastasis” value in the series with 4T1 cells (setting [16]) is reported as 96.0. Besides, in the series on 4T1 cells (setting [16]), the “Number of metastasized tumor” value turned out to be 5 ± 3. The “Inhibitory effect” value with 4T1 cells was “greatly improved”.
Regarding `COCCOCC(=O)N[C@H](C)C(=O)N[C@H](C)C(=O)N[C@H](CC(N)=O)C(=O)Nc1ccc(COC(=O)N2[C@@H]3CN4C5=C(C(=O)C(N)=C(C)C5=O)[C@H](COC(N)=O)[C@]4(OC)[C@@H]32)cc1` [Compound E1, 2-(2-methoxyethoxy) acetyl-L-Ala-L-Ala-L-Asn-4-amino benzyl mitomycin], the “Mortality rate (%)” value with BALB/C mice (50 mg/kg single IV injection, 10 BALB/C mice) amounted to 0%; in the series with BALB/C mice (70 mg/kg single IV injection, 10 BALB/C mice), 0%; in the series with BALB/C mice (90 mg/kg single IV injection, 10 BALB/C mice), 0%; with BALB/C mice (110 mg/kg single IV injection, 10 BALB/C mice), 10%. The “Number of dead animal” value was 0 in the series on BALB/C mice (50 mg/kg single IV injection, 10 BALB/C mice, observed 17 days); 0 in the series on BALB/C mice (70 mg/kg single IV injection, 10 BALB/C mice, observed 17 days); 0 with BALB/C mice (90 mg/kg single IV injection, 10 BALB/C mice, observed 17 days); 1 with BALB/C mice (110 mg/kg single IV injection, 10 BALB/C mice, observed 17 days). Also, the “Behaviors and death observed” value in the series on BALB/C mice (BALB/C mice receiving 90 mg/kg injection) was “no pilo-erection, hair tousle and lackluster, lethargy, stoop, irritable reaction and death”. In addition, the “inhibitory rate on tumor (Day 26)” value in [1] (setting [17]) turned out to be 95.4%; in [2] (setting [17]) it was 95.3%; in series [3] (setting [17]) it was 86.5%; in the series with Human colon cancer HT-29 (setting [17]) it was 86.7%. The “Activation ratio (%) in homogenates from different tumor tissues” value in series [5] (37° C.) worked out at 83.6%. Also, the “Inhibitory effect” value in the series on 4T1 cells is reported as “greatly improved”. Besides, the “Inhibitory rate on metastasis” value in the series with 4T1 cells (day 27, IV once every three days for 4 times, E1-E4 15 mg/kg, mitomycin 1 mg/kg) was 99.2%. In the series with 4T1 cells (lung metastases counted on day 27, IV once every three days for 4 times, E1-E4 15 mg/kg, mitomycin 1 mg/kg), the “Number of metastasized tumor” value stood at 2 ± 3.
